Laboratory results reported in PMC10891143, “Quantitative live cell imaging of a tauopathy model enables the identification of a polypharmacological drug candidate that restores physiological microtubule interaction” (Nature Communications, 2024).

Key:
[1] = target: T1, PAGFP-Tau / PAGFP-TauΔK280 (Homo sapiens, UniProt P10636, DEL125-375/DEL395-460/DEL597-597); assay: FDAP live-cell imaging, effective diffusion constant of tau (restored microtubule binding); format: cell-based
T1 construct: gene MAPT
T1 sequence (P10636 with tags, fused parts or gaps DEL125-375/DEL395-460/DEL597-597): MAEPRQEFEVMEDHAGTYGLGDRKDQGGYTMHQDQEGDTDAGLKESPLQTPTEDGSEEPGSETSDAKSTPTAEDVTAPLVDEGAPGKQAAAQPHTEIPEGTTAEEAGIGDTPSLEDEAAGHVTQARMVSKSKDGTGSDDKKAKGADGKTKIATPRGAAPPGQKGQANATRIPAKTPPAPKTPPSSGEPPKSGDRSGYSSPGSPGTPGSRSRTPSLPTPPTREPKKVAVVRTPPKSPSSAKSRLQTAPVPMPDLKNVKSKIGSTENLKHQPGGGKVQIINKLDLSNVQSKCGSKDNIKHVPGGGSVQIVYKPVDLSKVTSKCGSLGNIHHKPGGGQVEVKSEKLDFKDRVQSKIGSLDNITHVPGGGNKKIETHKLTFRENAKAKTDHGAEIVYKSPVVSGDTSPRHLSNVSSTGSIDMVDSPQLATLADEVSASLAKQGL
Excerpt: FDAP live-cell imaging, effective diffusion constant of tau (restored microtubule binding) on PAGFP-Tau / PAGFP-TauΔK280 | IC50 value of the activity of PHOX15 to restore microtubule binding of TauΔK280, obtaining

[2] = target: T2, Tau (recombinant human tau, Tau441wt) (Homo sapiens, UniProt P10636, DEL125-375/DEL395-460/DEL597-597); assay: heparin-induced aggregation, ultracentrifugation sedimentation assay; format: biochemical; conditions: 2-20 µM PHOX15, 24 h, 37 °C, pH 7.4, 200 µg/ml heparin, 1% DMSO
T2 construct: gene MAPT; full-length Tau441, pET-3d, E. coli BL21(DE3)pLysS; anion exchange and phosphocellulose chromatography
T2 sequence (P10636 with tags, fused parts or gaps DEL125-375/DEL395-460/DEL597-597): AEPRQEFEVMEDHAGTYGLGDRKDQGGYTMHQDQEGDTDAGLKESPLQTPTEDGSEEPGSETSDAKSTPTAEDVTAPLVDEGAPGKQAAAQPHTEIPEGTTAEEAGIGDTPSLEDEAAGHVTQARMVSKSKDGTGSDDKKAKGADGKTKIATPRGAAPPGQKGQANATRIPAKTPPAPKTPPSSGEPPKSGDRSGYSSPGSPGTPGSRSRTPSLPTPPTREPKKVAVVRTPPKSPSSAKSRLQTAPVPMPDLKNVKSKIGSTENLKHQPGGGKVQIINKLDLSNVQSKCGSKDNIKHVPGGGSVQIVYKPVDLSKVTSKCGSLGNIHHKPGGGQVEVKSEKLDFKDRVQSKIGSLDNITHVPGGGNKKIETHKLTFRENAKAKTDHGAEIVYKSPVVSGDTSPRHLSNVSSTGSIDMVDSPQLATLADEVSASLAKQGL

[3] = target: T3, Tau (recombinant human tau, Tau441wt) (Homo sapiens, UniProt P10636); assay: as above; format: biochemical; conditions: 20 µM PHOX15 (significant, p = 0.0494), 24 h, 37 °C, pH 7.4, 200 µg/ml heparin, 1% DMSO
T3 construct: gene MAPT; full-length Tau441, pET-3d, E. coli BL21(DE3)pLysS; anion exchange and phosphocellulose chromatography
T3 sequence (P10636 1-441 isoform P10636-8): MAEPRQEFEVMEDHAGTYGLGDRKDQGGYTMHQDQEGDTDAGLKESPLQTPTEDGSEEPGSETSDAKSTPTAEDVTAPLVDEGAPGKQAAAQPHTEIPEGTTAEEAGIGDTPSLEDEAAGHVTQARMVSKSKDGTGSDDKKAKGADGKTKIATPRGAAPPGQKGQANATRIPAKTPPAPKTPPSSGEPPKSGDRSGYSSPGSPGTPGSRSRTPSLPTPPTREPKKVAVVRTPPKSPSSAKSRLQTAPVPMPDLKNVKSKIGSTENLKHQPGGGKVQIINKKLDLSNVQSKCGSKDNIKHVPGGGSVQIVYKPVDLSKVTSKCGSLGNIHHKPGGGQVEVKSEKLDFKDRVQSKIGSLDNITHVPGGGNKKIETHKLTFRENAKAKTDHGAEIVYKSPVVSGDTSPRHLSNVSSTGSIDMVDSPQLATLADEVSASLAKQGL

IC50 [1]: 14 µM | % reduction of filament formation [2]: ~ 20%
SMILES: O=C(Nc1ccccc1)c1coc(-c2ccc(O)cc2O)n1 [PHOX15, 2-(2,4-dihydroxyphenyl)-N-phenyloxazole-4-carboxamide]
fraction of aggregated tau [3]: PHOX15 decreases aggregation of recombinant TauΔK280 and human wild-type tau (Tau) in vitro
